Source: publication PMC4674085, “Towards Prebiotic Catalytic Amyloids Using High Throughput Screening” (PLoS ONE, 2015)

What was measured:
[1] = Activity screen of the amyloid library, 4NPA hydrolysis in plate reader (Fig 1); format: biochemical; conditions: for hydrolytic activity in the screen: condition 2: pH 7.3 with ZnCl2, 40 μM crude peptide, 250 μM zinc(II), A400
Experimental: The most common assay for hydrolytic activity in enzymes is with the chromogenic substrate p-nitrophenyl acetate (4NPA). Therefore, 4NPA was chosen permitting a direct comparison of the hits from the screen with natural enzymes. Using an absorbance plate reader, we screened the activity of the amyloid library at a peptide concentration of 40 μM, fibrillized at pH 4 or 7.3 and in the presence of divalent cations (250 μM Co^2+, Cu^2+, Mg^2+, Mn^2+, Ni^2+, or Zn^2+) (Fig 1). […] Imidazole is known to catalyze 4NPA hydrolysis under these conditions via an acyl intermediate and it was used as a standard to compare the measured activity of the peptides from plate to plate.
Fig 1 Activity screens of peptide amyloids in various conditions. The hydrolysis rates of 4NPA measured for each of the peptide amyloids (in columns) are shown as a ratio to the negative control (buffer) with color-codes as indicated at the bottom of the Figure. A color code from black (rate ratio of 1.0) to light blue (1.5) to red (19) is used. Activities below the negative control are indicated with smaller disks and color-coded from light grey to black. Occasionally observed negative reaction rates are indicated by small blue disks. The peptide amyloids were tested in a total of 46 conditions of which 19 conditions are shown here (in rows). The peptides are numbered according to Table 2, including a short nomenclature highlighting only the variable residues (e.g. the peptide Ac-YVDVHVSV-CONH2 is abbreviated DHS). The conditions are sorted top-down with the highest observed activity at the top. A detailed list of the conditions tested are shown in Table B in S1 File, while below a compressed introduction to the different conditions is listed: (2) pH 7.3 with ZnCl2 (control for 33 without heating), (33) condition 2 and heated to 95°C for 1 h prior to screening, (46) condition 2 and screened in 50% DMSO, (39) condition 2 and screened with 4.75 M NaCl, (40) condition 2 and screened with 0.2 M MgCl2, (45) condition 2 and screened in 90% EtOH, (38) condition 2 and screened with 0.2 M NaCl, (30) pH 7.3 with ZnCl2 and 1 M Na2SO4, (35) pH 7.3 and screened in 4.75 M NaCl, (34) pH 7.3 and screened in 0.5 M NaCl, (37) pH 7.3 and screened in 2 M MgCl2, (27) pH 7.3 with ZnCl2 and 0.2 M MgCl2, (6) pH 7.3 with NiCl2, (4) pH 7.3 with CoCl2, (1) pH 7.3 without other additives, (41) condition 2 and screened in 2 M MgCl2, (5) pH 7.3 with CuCl2, (36) pH 7.3 and screened in 0.2 M MgCl2 and (8) pH 4.0 without other additives.
(§1) The reaction buffer consisted of the same buffer as the fibrillization buffer without ZnCl2 and with 1.33 mM 4NPA prepared from a 100 mM stock in CH3CN. The samples of the amyloid library were mixed 1:3 with the reaction buffer yielding 40 μM peptide and, when present 250 μM zinc(II). The absorbance measurements were performed in a BMG Pherastar platereader with a 400 nm band-pass filter (10 nm bandwidth) in 96-well Nunclon Delta surface plates or 384-well Greiner Bio-One non-bind black μclear plates.
Table B: Amyloid growth and measurement conditions.
Growth = Measurement1 Growth⁄= Measurement1
Divalent2 pH3 T (◦C) Additive Divalent pH T (◦C) Additive
1. The conditions for ﬁbrillization and 4NPA assay are the same for 1-32 except that the 4NPA assay was always at 30 ◦C and the divalent concentration was one-fourth as high. For condition 33, the sample was heated to 95 ◦C for 1 hour prior to the 4NPA assay and for 34-46 the samples were ﬁbrillized in condition 1 or 2 and then transferred to the new conditions with additive just for the 4NPA assay.
2. Divalent concentration is 1 mM for growth and 250µM for 4NPA assay.
3. Grown and measured in 50 mM buﬀer: HEPES at pH 7.3, NaOAc at pH 4.0, or phthalate at pH 2.2.

[2] = Plate reader 4NPA hydrolysis kinetics of purified peptide amyloids at pH 7.3; format: biochemical; conditions: 4NPA hydrolysis, pH 7.3 HEPES with zinc(II), 20 μM purified peptide; for k cat/K M: 0.1-1.0 mM 4NPA, 1% CH3CN, A400, Michaelis-Menten fit, triplicate (duplicate for 8, 27, 34, 35); for k cat/K M / k cat: per monomer peptide; for K M / k cat: Michaelis-Menten fit
Experimental: as §1
The kinetics assays performed on the purified peptides were prepared similarly except that the peptide concentration was 20 μM in the reaction. Furthermore, the various substrate concentrations and replicate samples were randomly distributed over the plate to minimize systematic errors. Various 4NPA concentrations (i.e. 0.1 mM, 0.2 mM, 0.4 mM, 0.6 mM, 1.0 mM) were added from a 100 times stock so that the final CH3CN concentration was always 1%. The linear part of the hydrolysis activity was fit with an extinction coefficient of ε = 9700 M^-1cm^-1 and corrected for the background reaction rate of buffer alone (v bg = 5.0 × 10^-6 Ms^-1) to obtain the initial reaction rate v 0. The average of the initial reaction rates at each substrate concentration were then fit to the Michaelis-Menten type kinetics to obtain k cat, K M and k cat/K M always calculated per monomer peptide. The background reaction rate was obtained similarly using 5 replicates.

[3] = X-ray fiber diffraction of aligned fibrils; format: physicochemical; conditions: washed pellets dried between glass capillaries, room temperature
Experimental: The samples were centrifuged, the pellet resuspended (ultrapure water or 10 mM NaOAc pH 4) and centrifuged again. The washed pellets were resuspended in a minimal amount of water and 4 μl of the suspension were pipetted between the melted ends of two glass capillaries, which were then left to dry overnight in a sealed petri dish. The dried material was placed in an X-ray beam (Rigaku MicroMax-007HF) at room temperature for a 20 min exposure and diffraction data was collected on a Mar345 image plate detector.
Table A and associated data: Biophysical characterization of library […]
1. Fold increase in ThT ﬂuorescence over background.
2. CD spectra classiﬁed as follows: (β+) has minimum near 217 nm, (β++) has minimum near 217 nm and a maximum near 197 nm, (−) signal too weak to interpret, (?) spectra not typical of any secondary […]
3. The peak position in amide I region is given in cm−1. […]
within the typical range of stretching frequencies forβ-structure (between dashed lines at 1638 cm−1 and […]
4. (+) ﬁbrils present or (−) absent in EM micrographs.
5. Diﬀraction images recorded for the aligned ﬁbrils of 5 diﬀerent peptides (see materials and methods).

[4] = Aggregation at pH 4 from soluble material left after 100,000 g centrifugation; format: physicochemical; conditions: 40 μM purified peptide, pH 4, soluble material in supernatant of 100,000 g centrifugation

Q: Which “hydrolytic activity in the screen” value [1] does the source give for “Ac-YVAVHVHV-NH2 [Peptide 27, Ac-YVAVHVHV-CONH2]” here?
A: highest activity

Q: What about the “activity in the screen under extreme conditions” value ([1]; high organic solvent content (50% DMSO, 90% EtOH) or high salt (4.75 M NaCl, 1 M Na2SO4), with ZnCl2) of the same substance?
A: often significant

Q: What about the “k cat/K M” value [2] of the same substance?
A: 4.26 ± 0.13 M⁻¹ s⁻¹

Q: What about the “K M” value [2] of the same substance?
A: 7.2 ± 2.1 mM

Q: What about the k cat [2] of the same substance?
A: 3.05±0.80 10^-2s^-1

Q: And the “X-ray diffraction of aligned fibrils” value [3]?
A: cross-β

Q: With “Ac-YVDVHVDV-NH2 [Peptide 25, Ac-YVDVHVDV-CONH2]” as the substance, how does the “relative activity in the screen in 50% DMSO” value ([1]; condition 46: fibrillized at pH 7.3 with ZnCl2, screened in 50% DMSO, also activity above positive control (200 μM imidazole)) read?
A: increased relative activity compared to the same condition without DMSO

Q: With “Ac-YVHVHVDV-NH2 [Peptide 21, Ac-YVHVHVDV-CONH2]” as the substance, how does the “k cat/K M” value [2] read?
A: 0.473 ± 0.046 M⁻¹ s⁻¹

Q: What about the “K M” value [2] of the same substance?
A: 1.23 ± 0.32 mM

Q: What about the k cat [2] of the same substance?
A: 0.059±0.010 10^-2s^-1

Q: And the “aggregation behaviour at pH 4” value [4]?
A: remained soluble for several days

Q: With “Ac-YVHVHVHV-NH2 [Peptide 8, Ac-YVHVHVHV-CONH2]” as the substance, how does the “hydrolytic activity in the screen” value [1] read?
A: highest activity

Q: And the “k cat/K M” value [2]?
A: 2.288 ± 0.077 M⁻¹ s⁻¹

Q: What about the “K M” value [2] of the same substance?
A: 2.39 ± 0.32 mM

Q: And the k cat [2]?
A: 0.547±0.056 10^-2s^-1

Q: What about the “X-ray diffraction of aligned fibrils” value [3] of the same substance?
A: cross-β

Q: For “Ac-YVHVHVSV-NH2 [Peptide 11, Ac-YVHVHVSV-CONH2]”, which “hydrolytic activity in the screen” value [1] is on record?
A: highest activity

Q: What about the “k cat/K M” value [2] of the same substance?
A: 6.29 ± 0.52 M⁻¹ s⁻¹

Q: What about the “K M” value [2] of the same substance?
A: 0.87 ± 0.15 mM

Q: And the k cat [2]?
A: 0.514±0.051 10^-2s^-1

Q: Which “hydrolytic activity in the screen” value [1] does the source give for “Ac-YVSVHVHV-NH2 [Peptide 9, Ac-YVSVHVHV-CONH2]” here?
A: highest activity

Q: And the “k cat/K M” value [2]?
A: 1.461 ± 0.094 M⁻¹ s⁻¹

Q: What about the “K M” value [2] of the same substance?
A: 3.71 ± 0.39 mM

Q: And the k cat [2]?
A: 0.544±0.048 10^-2s^-1
